Assay results as given in patent US20100278733A1, “COMPOSITION FOR DIAGNOSIS OF AMYLOID-RELATED DISEASE” (priority 2007, published 2010).

Key:
[1] = In-vivo radioactivity distribution experiment using normal mice (Example 2); details: Example 2 numbering; for In-vivo radioactivity distribution: blood / In-vivo radioactivity distribution: brain / In-vivo radioactivity distribution: heart / In-vivo radioactivity distribution: intestine / In-vivo radioactivity distribution: kidney / In-vivo radioactivity distribution: liver / In-vivo radioactivity distribution: lung / In-vivo radioactivity distribution: pancreas / In-vivo radioactivity distribution: spleen / In-vivo radioactivity distribution: stomach: normal mice, intravenous
Method: Radioactive iodine labeling compounds were diluted with physiological saline containing 10% EtOH. To each of four or five 5-week-old male ddY mice (20 to 25 g) per group, […] of a labeled compound, [^125I]Compound 7, 10, 13, or 14 (0.2 to 0.4 mCi), was administered from the caudal vein. Animals were decapitated at 2, 10, 30, or 60 min, blood was collected, the major organs were isolated, and then weights and radioactivities thereof were measured.

Aβ(1-42) aggregate = molecular target: T1, Aβ(1-42) aggregate (Homo sapiens, UniProt P05067); experiment: Binding inhibition experiment using Aβ(1-42) aggregate, Ki values (Example 2); details: radioactive ligand [^125I]CL-NMe2; mean ± standard error of 3 experiments (compound 4: 6 experiments); compound numbers of Example 2; read-out: Ki values calculated by inhibition experiment
T1 construct: Amyloid β protein (Human, 1-42) [TFA form] was purchased from Peptide Institute, Inc; purchased Peptide Institute, Inc
Method: As a radioactive iodine-125 (^125I), Iodine-125 (3.7 GBq/mL) manufactured by MP Biomedicals, Inc. was used. Reverse phase HPLC was performed at a flow rate of 1.0 mL/min using a Cosmosil 5C18-AR-II column (4.6×150 mm) manufactured by Nacalai Tesque Inc. and ultrapure water:acetonitrile=3:7 as an elution solvent. ^1HNMR was measured using Varian Gemini 300 and tetramethylsilane as an internal standard substance. Mass spectrometry was performed using JEOL IMS-DX300. Preparative TLC was performed using 12 PLC plates 20×20-cm-Silica gel 60 F254, 2 mm manufactured by MERCK. Amyloid β protein (Human, 1-42) was purchased from Peptide Institute, Inc., and special grade reagents were used as other reagents.
Aβ(1-42) was dissolved in 10 mM phosphate buffer containing 1 mM EDTA (pH 7.4) at a concentration of 0.25 mg/mL, and the mixture was incubated at 37° C. for 42 h to prepare an Aβ(1-42) aggregate.
[…] of 10% EtOH solution, […] of a solution of [^125I]4-diethylamino-4′-iodochalcone ([^125I]CL-NMe2) in 10% ethanol, and […] of a sample solution at various concentrations (0 to 20 mM) were mixed, […] of an Aβ(1-42) aggregate solution was finally added, and the mixture was allowed to stand at room temperature for 3 h. Aβ(1-42) aggregate-bound compounds and nonbound compounds were separated with a Brandel M-24R cell harvester using a Whatman GF/B filter. Radioactivities remaining on the filter after filtration were measured with a γ-counter, and inhibition curves were created using Graph Pad Prism 4.0 to calculate inhibition constants (Ki values).

[2] = In-vivo radioactivity distribution experiment in normal mice (Reference Example 2); details: Reference Example 2 numbering; for Radioactivity concentration in the brain of mice: intravenous
Method: Labeled compounds, [^11C]Compounds 23 and 7, were diluted with physiological saline containing 10% ethanol. 100 μL of each of the labeled compounds was intravenously infused to five 5-week-old male ddY mice per group, the animals were decapitated at 2, 10, 30, or 60 min, blood was collected, and then weights and radioactivities thereof were measured.

T1 sequence (P05067 672-713 limits assumed): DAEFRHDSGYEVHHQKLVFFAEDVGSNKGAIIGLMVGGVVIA

CNc1ccc(C=CC(=O)c2ccc(I)s2)cc1 [Compound 13 in Example 2, 1-(5-iodo-2-thienyl)-3-(4-methylaminophenyl)-prop-2-en-1-one]
stability in the organism ([1]; in words: radioactivity accumulation in the stomach, retention in blood, deiodination): instability in the organism | In-vivo radioactivity distribution: blood ([1]; 2 min): 3.00 (0.83) percent of the dose/g | In-vivo radioactivity distribution: brain ([1]; 2 min): 2.56 (0.44) percent of the dose/g | In-vivo radioactivity distribution: heart ([1]; 2 min): 3.55 (0.57) percent of the dose/g | In-vivo radioactivity distribution: intestine ([1]; 2 min): 1.60 (0.32) percent of the dose/g | In-vivo radioactivity distribution: kidney ([1]; 2 min): 4.50 (1.00) percent of the dose/g | In-vivo radioactivity distribution: liver ([1]; 2 min): 8.41 (1.24) percent of the dose/g | In-vivo radioactivity distribution: lung ([1]; 2 min): 5.61 (1.33) percent of the dose/g | In-vivo radioactivity distribution: pancreas ([1]; 2 min): 3.73 (0.67) percent of the dose/g | In-vivo radioactivity distribution: spleen ([1]; 2 min): 2.06 (0.49) percent of the dose/g | In-vivo radioactivity distribution: stomach ([1]; 2 min): 1.48 (0.39) percent of the dose | In-vivo radioactivity distribution: blood ([1]; 10 min): 3.68 (0.70) percent of the dose/g | In-vivo radioactivity distribution: brain ([1]; 10 min): 1.13 (0.16) percent of the dose/g | In-vivo radioactivity distribution: heart ([1]; 10 min): 2.48 (0.36) percent of the dose/g | In-vivo radioactivity distribution: intestine ([1]; 10 min): 3.86 (0.20) percent of the dose/g | In-vivo radioactivity distribution: kidney ([1]; 10 min): 6.59 (1.34) percent of the dose/g | In-vivo radioactivity distribution: liver ([1]; 10 min): 13.29 (1.65) percent of the dose/g | In-vivo radioactivity distribution: lung ([1]; 10 min): 6.33 (1.42) percent of the dose/g | In-vivo radioactivity distribution: pancreas ([1]; 10 min): 2.53 (0.72) percent of the dose/g | In-vivo radioactivity distribution: spleen ([1]; 10 min): 4.00 (1.55) percent of the dose/g | In-vivo radioactivity distribution: stomach ([1]; 10 min): 5.13 (1.67) percent of the dose | In-vivo radioactivity distribution: blood ([1]; 30 min): 2.29 (0.32) percent of the dose/g | In-vivo radioactivity distribution: brain ([1]; 30 min): 0.28 (0.06) percent of the dose/g | In-vivo radioactivity distribution: heart ([1]; 30 min): 1.45 (0.17) percent of the dose/g | In-vivo radioactivity distribution: intestine ([1]; 30 min): 4.36 (1.49) percent of the dose/g | In-vivo radioactivity distribution: kidney ([1]; 30 min): 3.16 (0.80) percent of the dose/g | In-vivo radioactivity distribution: liver ([1]; 30 min): 5.10 (1.12) percent of the dose/g | In-vivo radioactivity distribution: lung ([1]; 30 min): 3.17 (0.52) percent of the dose/g | In-vivo radioactivity distribution: pancreas ([1]; 30 min): 1.48 (0.34) percent of the dose/g | In-vivo radioactivity distribution: spleen ([1]; 30 min): 2.06 (0.28) percent of the dose/g | In-vivo radioactivity distribution: stomach ([1]; 30 min): 9.94 (1.69) percent of the dose | In-vivo radioactivity distribution: blood ([1]; 60 min): 2.89 (0.49) percent of the dose/g | In-vivo radioactivity distribution: brain ([1]; 60 min): 0.15 (0.03) percent of the dose/g | In-vivo radioactivity distribution: heart ([1]; 60 min): 1.43 (0.29) percent of the dose/g | In-vivo radioactivity distribution: intestine ([1]; 60 min): 6.26 (1.78) percent of the dose/g | In-vivo radioactivity distribution: kidney ([1]; 60 min): 2.52 (0.48) percent of the dose/g | In-vivo radioactivity distribution: liver ([1]; 60 min): 4.32 (0.75) percent of the dose/g | In-vivo radioactivity distribution: lung ([1]; 60 min): 3.11 (0.66) percent of the dose/g | In-vivo radioactivity distribution: pancreas ([1]; 60 min): 1.76 (0.40) percent of the dose/g | In-vivo radioactivity distribution: spleen ([1]; 60 min): 2.52 (0.36) percent of the dose/g | In-vivo radioactivity distribution: stomach ([1]; 60 min): 14.32 (1.81) percent of the dose | Ki (Aβ(1-42) aggregate): 14.1 ± 0.6 nM

CN(C)c1ccc(/C=C/C(=O)c2ccc(OCCOCCOCCF)cc2)cc1 [Compound 7 in Reference Example 2, (E)-1-(4-(2-(2-(2-fluoroethoxy)ethoxy)ethoxy)phenyl)-3-(4-(dimethylamino)phenyl)prop-2-en-1-one]
ratio of brain radioactivity at 60 min to that at 2 min after administration [2]: 8.1% | ratio of the radioactivity remaining in the brain at 30 min after administration to that at 2 min after administration [2]: 14.8% | Radioactivity concentration in the brain of mice ([2]; 2 min after administration, listed as [^11C] 7): 4.31 ± 0.33 % ID/g | Radioactivity concentration in the brain of mice ([2]; 2 min after administration, listed as [^11C]Compound 7): 4.31 % ID/g | Radioactivity concentration in the brain of mice ([2]; 10 min after administration): 1.38 ± 0.16 % ID/g | Radioactivity concentration in the brain of mice ([2]; 30 min after administration): 0.64 ± 0.07 % ID/g | Radioactivity concentration in the brain of mice ([2]; 60 min after administration, listed as [^11C] 7): 0.35 ± 0.03 % ID/g | Radioactivity concentration in the brain of mice ([2]; 60 min after administration, listed as [^11C]Compound 7): 0.35 % ID/g

CN(C)c1ccc(C(=O)/C=C/c2ccc(I)cc2)cc1 [Compound 10 in Example 2, 4-iodo-4′-dimethylaminochalcone]
In-vivo radioactivity distribution: blood ([1]; 2 min): 1.87 (0.23) percent of the dose/g | In-vivo radioactivity distribution: brain ([1]; 2 min): 2.77 (0.37) percent of the dose/g | In-vivo radioactivity distribution: heart ([1]; 2 min): 5.23 (0.61) percent of the dose/g | In-vivo radioactivity distribution: intestine ([1]; 2 min): 2.69 (0.43) percent of the dose/g | In-vivo radioactivity distribution: kidney ([1]; 2 min): 6.30 (0.85) percent of the dose/g | In-vivo radioactivity distribution: liver ([1]; 2 min): 13.99 (1.57) percent of the dose/g | In-vivo radioactivity distribution: lung ([1]; 2 min): 6.02 (0.60) percent of the dose/g | In-vivo radioactivity distribution: pancreas ([1]; 2 min): 3.85 (1.97) percent of the dose/g | In-vivo radioactivity distribution: spleen ([1]; 2 min): 2.35 (0.35) percent of the dose/g | In-vivo radioactivity distribution: stomach ([1]; 2 min): 0.76 (0.13) percent of the dose | In-vivo radioactivity distribution: blood ([1]; 10 min): 1.89 (0.61) percent of the dose/g | In-vivo radioactivity distribution: brain ([1]; 10 min): 2.04 (0.26) percent of the dose/g | In-vivo radioactivity distribution: heart ([1]; 10 min): 2.05 (0.37) percent of the dose/g | In-vivo radioactivity distribution: intestine ([1]; 10 min): 9.27 (1.36) percent of the dose/g | In-vivo radioactivity distribution: kidney ([1]; 10 min): 4.51 (1.29) percent of the dose/g | In-vivo radioactivity distribution: liver ([1]; 10 min): 10.29 (2.06) percent of the dose/g | In-vivo radioactivity distribution: lung ([1]; 10 min): 3.92 (0.76) percent of the dose/g | In-vivo radioactivity distribution: pancreas ([1]; 10 min): 2.12 (0.31) percent of the dose/g | In-vivo radioactivity distribution: spleen ([1]; 10 min): 1.52 (0.19) percent of the dose/g | In-vivo radioactivity distribution: stomach ([1]; 10 min): 0.89 (0.28) percent of the dose | In-vivo radioactivity distribution: blood ([1]; 30 min): 1.51 (0.40) percent of the dose/g | In-vivo radioactivity distribution: brain ([1]; 30 min): 0.63 (0.06) percent of the dose/g | In-vivo radioactivity distribution: heart ([1]; 30 min): 1.10 (0.16) percent of the dose/g | In-vivo radioactivity distribution: intestine ([1]; 30 min): 12.50 (2.49) percent of the dose/g | In-vivo radioactivity distribution: kidney ([1]; 30 min): 4.10 (1.15) percent of the dose/g | In-vivo radioactivity distribution: liver ([1]; 30 min): 6.69 (1.21) percent of the dose/g | In-vivo radioactivity distribution: lung ([1]; 30 min): 1.95 (0.25) percent of the dose/g | In-vivo radioactivity distribution: pancreas ([1]; 30 min): 0.85 (0.10) percent of the dose/g | In-vivo radioactivity distribution: spleen ([1]; 30 min): 0.82 (0.15) percent of the dose/g | In-vivo radioactivity distribution: stomach ([1]; 30 min): 0.73 (0.23) percent of the dose | In-vivo radioactivity distribution: blood ([1]; 60 min): 1.38 (0.54) percent of the dose/g | In-vivo radioactivity distribution: brain ([1]; 60 min): 0.42 (0.11) percent of the dose/g | In-vivo radioactivity distribution: heart ([1]; 60 min): 0.84 (0.26) percent of the dose/g | In-vivo radioactivity distribution: intestine ([1]; 60 min): 20.09 (5.48) percent of the dose/g | In-vivo radioactivity distribution: kidney ([1]; 60 min): 4.59 (1.57) percent of the dose/g | In-vivo radioactivity distribution: liver ([1]; 60 min): 7.06 (2.45) percent of the dose/g | In-vivo radioactivity distribution: lung ([1]; 60 min): 1.71 (0.29) percent of the dose/g | In-vivo radioactivity distribution: pancreas ([1]; 60 min): 0.84 (0.22) percent of the dose/g | In-vivo radioactivity distribution: spleen ([1]; 60 min): 0.89 (0.12) percent of the dose/g | In-vivo radioactivity distribution: stomach ([1]; 60 min): 2.17 (1.24) percent of the dose | Ki (Aβ(1-42) aggregate): 13.3 ± 1.9 nM
